In assay [1] the test system is mouse epithelial renal cell line, MCT. Conditions: MCT cells, co-treatment with LPA; cited from earlier work.
Assay [2] deals with pancreatic cancer cell lines. Conditions: LPA and peritoneal fluid (ascites) from pancreatic cancer patients; cited from earlier work.
Assay [3] deals with human foetal lung fibroblasts. Conditions: BAL obtained from IPF patients; cited from earlier work.
For a further assay, the system named is UUO mice. Conditions: UUO mice treated with antagonist; cited from earlier work.
Assay [4] relates to highly peritoneal metastatic pancreatic cancer cell line. Conditions: cited from earlier work.
A further assay deals with T1, human LPA1 (Homo sapiens, UniProt Q92633).
T1 construct: the full-length cDNA for human LPA1 was obtained by PCR of the reverse transcription reaction; expressed in transfected cells
T1 sequence (Q92633 whole entry): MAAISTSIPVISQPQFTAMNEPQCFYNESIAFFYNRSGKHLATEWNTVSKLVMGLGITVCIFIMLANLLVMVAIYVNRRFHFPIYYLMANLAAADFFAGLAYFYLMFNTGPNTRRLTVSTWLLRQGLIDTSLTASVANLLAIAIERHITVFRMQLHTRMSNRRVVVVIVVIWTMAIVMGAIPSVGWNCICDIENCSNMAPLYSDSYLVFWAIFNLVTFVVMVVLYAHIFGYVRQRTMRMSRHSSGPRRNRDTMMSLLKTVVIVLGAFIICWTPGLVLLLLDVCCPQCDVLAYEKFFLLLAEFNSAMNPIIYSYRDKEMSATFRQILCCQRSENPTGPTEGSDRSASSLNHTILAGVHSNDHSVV
The assay is described as follows: LPA1 calcium flux assay. The assay is classed as cell-based. Conditions: CHO cells expressing human LPA1, stimulated with 10 nM LPA; read-out: HLPA1 Ca Flux IC50. The method, boiled down: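 Antagonism measured as block of 10 nM LPA-evoked calcium rise in stable human LPA1-CHO cells. After overnight serum-free culture and 1 h dye loading at 37 °C (buffer with 0.3% fatty-acid-free albumin), compound was added for 30 min at room temperature. Titration curves gave IC50.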
On the technique in general: Calcium flux is commonly read through the fluorescence of an indicator in the cells.

Assay [5] has as its system A2058 human melanoma cells. Kind of assay: LPA1 chemotaxis assay. Format: cell-based. Conditions: LPA 100 nM, read-out: IC50, inhibition of LPA-driven chemotaxis. Here is the method:
Chemotaxis of the A2058 human melanoma cells was measured using the Neuroprobe ChemoTx® System plates (8 μm pore size, 5.7 mm diameter sites). The filter sites were coated with 0.001% fibronectin (Sigma) in 20 mM Hepes, pH 7.4 and allowed to dry. A2058 cells were serum-starved for 24 hours, then harvested with Cell Stripper and resuspended in DMEM containing 0.1% fatty-acid-free bovine serum albumin (BSA) to a concentration of 1×10^6/ml. Cells were mixed with an equal volume of test compound (2×) in DMEM containing 0.1% fatty-acid-free BSA and incubated at 37° C. for 15 minutes. LPA (100 nM in DMEM containing 0.1% fatty-acid-free BSA) or vehicle was added to each well of the lower chamber and 50 μl of the cell suspension/test compound mix was applied to the upper portion of the ChemoTx plate. Plates were incubated at 37° C. for three hours and then the cells removed from the upper portion by rinsing with PBS and scraping. The filter was dried then stained with HEMA 3 Staining System (Fisher Scientific). The absorbance of the filter was read at 590 nm and IC50s were determined using Symyx Assay Explorer.

The subject of the next assay is nerve-injured mice. Conditions: pretreatment; cited from earlier work.

Here are results for 21 compounds from patent publication US9624182B2, “Compounds as lysophosphatidic acid receptor antagonists” (Amira Pharmaceuticals, Inc., priority 2009, dated 2017).

A word on the IC50: it is the point on the concentration scale where inhibition reaches its midpoint.

The structures appear in SMILES notation.

Consider `Cc1noc(-c2ccc(CSCCC(=O)O)cc2)c1NC(=O)OC(C)c1ccccc1Cl` (stereo not drawn) [Ki16425], for which, in assay [1], the “LPA-induced increase in CTGF expression” value is listed as “almost completely suppressed”. For the same compound, the “in vitro migration in response to LPA and ascites” value in assay [2] is listed as “effectively blocked”. Also, the “chemotaxis of human foetal lung fibroblasts induced by BAL from IPF patients” value in assay [3] was “blocked”. For the same compound, the “development of renal fibrosis in UUO mice” value in the assay with UUO mice is listed as “closely resembled the LPA1 (−/−) mice”. Further, the “LPA-induced and ascites-induced invasion activity” value in assay [4] is reported as “blocked”.
`Cc1noc(-c2ccc(-c3ccc(C4(C(=O)O)CC4)cc3)cc2)c1C(O)C(F)(F)CCc1ccccc1` (single isomer, unassigned) [Compound 1-255, 1-{4′-[4-(2,2-Difluoro-1-hydroxy-4-phenyl-butyl)-3-methyl-isoxazol-5-yl]-biphenyl-4-yl}-cyclopropanecarboxylic acid]: the results for the IC50 (on human LPA1; in assay [5]) were below 300 nM and below 100 nM, respectively.
On to `C[C@@H](N)[C@H]1CC[C@H](C(=O)Nc2ccncc2)CC1` [Compound Y-27632], for which the allodynia and hyperalgesia result in the assay with nerve-injured mice was “completely abolished”.
Consider `Cc1noc(-c2ccc(-c3ccc(C4(C(=O)O)CC4)cc3)cc2)c1C(O)CCCc1ccccc1` (single isomer, unassigned) [Compound 1-155, 1-{4′-[4-(1-Hydroxy-4-phenyl-butyl)-3-methyl-isoxazol-5-yl]-biphenyl-4-yl}-cyclopropanecarboxylic acid], for which the values for the IC50 (on human LPA1; in assay [5]) were below 300 nM and below 100 nM, respectively.
As for `Cc1noc(-c2ccc(-c3ccc(C4(C(=O)O)CC4)cc3)cc2)c1C(O)CCCc1ccccc1` (stereo not drawn) [Compound 1-116, 1-{4′-[4-(1-Hydroxy-4-phenyl-butyl)-3-methyl-isoxazol-5-yl]-biphenyl-4-yl}-cyclopropanecarboxylic acid], in assay [5], the IC50 was below 100 nM.
Turning to `Cc1noc(-c2ccc(-c3ccc(CCC(=O)O)cc3)cc2)c1[C@H](O)CSCc1cccc(C(F)(F)F)c1` [Compound 1-274, 3-(4′-{4-[(S)-1-Hydroxy-2-(3-trifluoromethyl-benzylsulfanyl)-ethyl]-3-methyl-isoxazol-5-yl}-biphenyl-4-yl)-propionic acid], the concentration for half-maximal inhibition (IC50) at human LPA1 was below 300 nM.
In the case of `Cc1noc(-c2ccc(-c3ccc(C4(CC(=O)O)CC4)cc3)cc2)c1C(O)CC(C)(C)c1ccccc1` (stereo not drawn) [Compound 1-246, (1-{4′-[4-(1-Hydroxy-3-methyl-3-phenyl-butyl)-3-methyl-isoxazol-5-yl]-biphenyl-4-yl}-cyclopropyl)-acetic acid], the IC50 on human LPA1 lay in the range of 1000 to 50000 nM.
Still for that read-out and setting: next, `Cc1noc(-c2ccc(-c3ccc(C4(C(=O)NS(=O)(=O)C5CC5)CC4)cc3)cc2)c1NC(=O)NS(=O)(=O)C1CC1` [Compound 2-6, Cyclopropanesulfonic acid (1-{4′-[4-(3-cyclopropylsulfonyl-ureido)-3-methyl-isoxazol-5-yl]-biphenyl-4-yl}-cyclopropanecarbonyl)-amide]: 1000 to 50000 nM.
Consider `Cc1noc(-c2ccc(-c3ccc(C4(CC(=O)O)CC4)cc3)cc2)c1NC(C)CCc1cccc(F)c1` (stereo not drawn) [Compound 1-185, [1-(4′-{4-[3-(3-Fluoro-phenyl)-1-methyl-propylamino]-3-methyl-isoxazol-5-yl}-biphenyl-4-yl)-cyclopropyl]-acetic acid], for which, at human LPA1, the 50% inhibitory concentration (IC50) was below 300 nM.
For the compound `Cc1noc(-c2ccc(-c3ccc(C4(C(=O)O)CC4)cc3)cc2)c1C(O)C(F)(F)CCc1ccccc1` (stereo not drawn) [Compound 1-178, 1-{4′-[4-(2,2-Difluoro-1-hydroxy-4-phenyl-butyl)-3-methyl-isoxazol-5-yl]-biphenyl-4-yl}-cyclopropanecarboxylic acid], the IC50 in assay [5] is below 100 nM.
`Cc1noc(-c2ccc(-c3ccc([C@@H]4C[C@H]4C(=O)O)cc3)cc2)c1/C=C/CCc1ccccc1` (relative stereo) [Compound 1-128, (trans)-2-{4′-[3-Methyl-4-(4-phenyl-but-1-enyl)-isoxazol-5-yl]-biphenyl-4-yl}-cyclopropanecarboxylic acid]: at human LPA1, the half-inhibitory concentration (IC50) is 1000 to 50000 nM.
Consider `Cc1noc(-c2ccc(-c3ccc(C4(CC(=O)O)CC4)cc3)cc2)c1NC(C)CCc1c(F)cccc1Cl` (stereo not drawn) [Compound 1-219, [1-(4′-{4-[3-(2-Chloro-6-fluoro-phenyl)-1-methyl-propylamino]-3-methyl-isoxazol-5-yl}-biphenyl-4-yl)-cyclopropyl]-acetic acid], for which the 50% inhibitory concentration (IC50) at human LPA1 was below 300 nM.
`Cc1noc(-c2ccc(-c3ccc(C4(CC(=O)O)CC4)cc3)cc2)c1NC(C)CCc1cccc(C(F)(F)F)c1` (stereo not drawn) [Compound 1-183, [1-(4′-{3-Methyl-4-[1-methyl-3-(3-trifluoromethyl-phenyl)-propylamino]-isoxazol-5-yl}-biphenyl-4-yl)-cyclopropyl]-acetic acid]: the IC50 on human LPA1 was below 300 nM.
As to `Cc1noc(-c2ccc(-c3ccc(C4(C(=O)O)CC4)cc3)cc2)c1/C=C/CC(C)c1ccccc1` (stereo not drawn) [Compound 1-113, 1-{4′-[3-Methyl-4-((E)-4-phenyl-pent-1-enyl)-isoxazol-5-yl]-biphenyl-4-yl}-cyclopropanecarboxylic acid], the IC50 at human LPA1 was in the range of 1000 to 50000 nM.
In the case of `Cc1noc(-c2ccc(-c3ccc(C4(C(=O)O)CC4)cc3)cc2)c1NC(=O)N(C)[C@H](C)c1ccccc1` [Compound 1-9, 1-(4′-{3-Methyl-4-[3-methyl-3-((R)-1-phenyl-ethyl)-ureido]-isoxazol-5-yl}-biphenyl-4-yl)-cyclopropanecarboxylic acid], the half-maximal inhibitory concentration (IC50) on human LPA1 lay within 1000 to 50000 nM.
Consider `Cc1noc(-c2ccc(-c3ccc(C4(C(=O)O)CC4)cc3)cc2)c1NCCC(C)(C)C` [Compound 1-151, 1-{4′-[4-(3,3-Dimethyl-butylamino)-3-methyl-isoxazol-5-yl]-biphenyl-4-yl}-cyclopropanecarboxylic acid], for which the concentration for half-maximal inhibition (IC50) on human LPA1 lay in the range of 300 to 1000 nM.
For the compound `Cc1ccc(S(=O)(=O)NC(=O)Nc2c(C)noc2-c2ccc(-c3ccc(C4(C(=O)NS(=O)(=O)c5ccc(C)cc5)CC4)cc3)cc2)cc1` [Compound 2-5, 4-Methyl-N-(1-{4′-[3-methyl-4-(3-p-tolunesulfonyl-ureido)-isoxazol-5-yl]-biphenyl-4-yl}-cyclopropanecarbonyl)-benzenesulfonamide], on human LPA1, the IC50 is above 50000 nM.
As for `Cc1noc(-c2ccc(-c3ccc(C4(CC(=O)NS(C)(=O)=O)CC4)cc3)cc2)c1C(CCCc1ccccc1)OC(=O)NS(C)(=O)=O` (stereo not drawn) [Compound 2-15, N-Sulfonylmethyl carbamic acid 1-(5-{4′-[1-(2-methanesulfonylamino-2-oxo-ethyl)-cyclopropyl]-biphenyl-4-yl}-3-methyl-isoxazol-4-yl)-4-phenyl-butyl ester], the concentration for half-maximal inhibition (IC50) at human LPA1 lay within 300 to 1000 nM.
Take `Cc1noc(-c2ccc(-c3ccc(C4(C(=O)O)CC4)cc3)cc2)c1Nc1cccc(C(=O)O)n1` [Compound 1-298, 6-{5-[4′-(1-Carboxy-cyclopropyl)-biphenyl-4-yl]-3-methyl-isoxazol-4-ylamino}-pyridine-2-carboxylic acid]: at human LPA1, the half-inhibitory concentration (IC50) is 1000 to 50000 nM.
With `CC(C)=CCCC(C)Nc1c(C)noc1-c1ccc(-c2ccc(C3(CC(=O)O)CC3)cc2)cc1` (stereo not drawn) [Compound 1-204, (1-{4′-[4-(1,5-Dimethyl-hex-4-enylamino)-3-methyl-isoxazol-5-yl]-biphenyl-4-yl}-cyclopropyl)-acetic acid], the IC50 on human LPA1 was below 300 nM.
For the compound `Cc1noc(-c2ccc(-c3ccc(C4(C(=O)O)CC4)cc3)cc2)c1C(=O)C[S+]([O-])Cc1ccccc1` (stereo not drawn) [Compound 1-202, 1-{4′-[3-Methyl-4-(2-phenylmethanesulfinyl-acetyl)-isoxazol-5-yl]-biphenyl-4-yl}-cyclopropanecarboxylic acid], at human LPA1, the IC50 was in the range of 1000 to 50000 nM.
